“Also recorded” adds a separate entry of the source. Like-named read-outs stand apart in the source and are kept apart here.
How the values were obtained:
[1] = system: HT1080 cells (fibrosarcoma cells that do not endogenously express SSTR2); experiment: MTT cell growth assay of HT1080 cells transfected with HA-SSTR2 wild-type or C-terminal deletions; assay type: cell-based; settings: 5% FBS, with or without 100 nM sandostatin, three days
Method: Three days later, MTT assay was used to determine cell number.
In the following experiments, HA-tagged receptors were used.
(§1) Two days after transient transfection with HA-SSTR2D351 or HA-SSTR2D340, 3000 HT1080 cells were grown in the presence of 5% FBS with or without 100 nM of the somatostatin analogue sandostatin. Three days later, MTT assay was used to determine cell number.

HeyA8 tumors = experiment: Growth of HeyA8 tumors injected with adenovirus expressing HA-SSTR2delta340; assay type: in vivo; settings: HeyA8 tumors in nude mice, intratumoral adenovirus
Method: FIG. 12. Constitutively active SSTR2delta340 inhibits the growth of tumor cells. Nude mice were Injected subcutaneously with HeyA8 tumors cells and then each tumor was injected with adenovirus expressing HA-SSTR2delta340 or control inserts (8 tumors per group). Tumor size was measured by calipers. *p<0.05, tumors injected with adv-HA-SSTR2delta340 and given saline vs tumors injected with adv-GFP and given saline; for clarity only the comparison of these two groups is illustrated with *.
as §1

[2] = system: Human ovarian cancer (Hey A8) tumors to which HS5 cells homed; experiment: Growth of Hey A8 tumors after systemic (intracardiac) injection of HS5 cells expressing or not expressing HA-SSTR2D314; assay type: in vivo, nude mice; settings: HeyA8 tumors, intravenous
Method: FIG. 9: Stem cells expressing the signaling deficient mutant SSTR2D314 home to and incorporate into tumor and can be targeted with a therapeutic for inhibiting tumor growth.
Stem cells expressing the signaling deficient mutant SSTR2D314 home to and incorporate into tumor and can be targeted with a therapeutic for inhibiting tumor growth (FIG. 9). […] Human ovarian cancer (Hey A8) cells on one side and vehicle on the other side were injected subcutaneously in nude. Two days later, human mesenchymal stem cells (HS5 cells) expressing or not expressing HA-SSTR2D314 were injected systemically (intracardiac). […] Tumors were seen on the side injected with HeyA8 cells. Once tumors were established, 90Y-octreotate was delivered intravenously. Tumors were measured by calipers every two days. Tumors to which HS5 cells expressing the HA-SSTR2D314 mutant homed and incorporated were growth inhibited compared to control (*p<0.05, HeyA8+HS5-SSTR2D314 vs HeyA8+HS5vector). The incorporated stem cells not the tumor cells serve as a target for the therapeutic.

[3] = system: HT1080 tumors expressing HA-SSTR2 wild-type, HA-D314 or vector
Method: (§2) Stably transfected HT1080 cells were implanted subcutaneously in nude mice (three tumors, HA-wt, HA-D314, vector, per animal). When tumors were palpable, daily injections of the somatostatin analogue sandostatin were initiated and tumors were measured by calipers every two days.
(§3) Stably transfected HT1080 cells were implanted subcutaneously in nude mice (three tumors, HA-wt, HA-D314, vector, per animal).
(§4) Stably transfected HT1080 cells were implanted subcutaneously in nude mice (three tumors, HA-wt, HA-D314, vector, per animal). When tumors were palpable, 90Y-octreotate was given once at a dose of 1 mCi (FIG. 7A) or twice at doses of 2 mCi and 1 mCi (FIG. 7B).
as §2, §3, §4

[4] = system: Mouse ES cell-derived tumors expressing HA-SSTR2 or HA-SSTR2delta314; experiment: Growth of embryonic stem cell-derived teratomas measured by calipers; assay type: in vivo, nude mice; settings: tumors derived from wild type ES cells, i.v. twice
Method: Mouse ES cells (these are pluripotent stem cells that can be used to create transgenic mice and like most ES cells result in teratomas when injected in nude mice) were transfected with a plasmid containing HA-SSTR2 or HA-SSTR2delta314. Clones were then selected for expression. The cells were then injected into nude mice subcutaneously and tumor size was measured by calipers. After tumors were present in three locations per mouse in all 8 mice, the animals were injected i.v. with 90-Y labeled octreotate two days and 5 days later.
After tumors were present in three locations per mouse in all 8 mice, the animals were injected i.v. with 90-Y labeled octreotate two days and 5 days later as on the chart. Tumor size was measured by calipers. Unlike many stem cells, embryonic stem cells (ES) more commonly form teratomas. Inhibition of growth of established teratomas was assessed.

[5] = system: untransfected HT1080 cells admixed with HS5 cells; experiment: Bystander cell death, live/dead staining of HS5 mesenchymal stem cells admixed with untransfected HT1080 cells; assay type: cell-based, human; settings: HS5 stably expressing wild-type or signaling deficient HA-SSTR2 admixed with untransfected HT1080, 24 hours
Method: FIG. 4: Exposure to 90Y-DOTA-octreotate (DOTATATE) results in bystander cell death of tumor cells. Human mesenchymal stem cells (HS5) stably expressing wild-type or signaling deficient HA-SSTR2 receptors or transfected with vector were admixed with untransfected HT1080 cells and then exposed to 90Y-DOTATATE for 24 hours. Then, live (green)/dead (red) staining was performed.
Mixing mesenchymal stem cells expressing SSTR2 or the signaling deficient mutant delta 314 with untransfected tumor cells results in kill of rosettes of clusters of cells that are not seen if mesenchymal stem cells transfected with vector are used (FIG. 4), consistent with bystander killing. Human mesenchymal stem cells (HS5) stably expressing wild-type or signaling deficient HA-SSTR2 receptors or transfected with vector were admixed with untransfected HT1080 cells and then exposed to 90Y-DOTATATE for 24 hours.

[6] = system: HT1080 cells expressing wild-type or signaling deficient HA-SSTR2 receptors, or vector transfected; experiment: Cell death by trypan blue uptake in stably transfected HT1080 cells; assay type: cell-based
Method: Stably transfected HT1080 cells were exposed to different amounts of ^90Y-DOTATATE for 1 hour and 72 hours.

[7] = system: Human ovarian cancer (Hey A8) tumors incorporating HS5 cells; experiment: Growth of Hey A8 tumors co-injected with HS5 cells expressing or not expressing HA-SSTR2D314; assay type: in vivo, nude mice; settings: intravenous
Description: FIG. 8: Stem cells expressing the signaling deficient mutant SSTR2D314 incorporate into tumor and can be targeted with a therapeutic for Inhibiting tumor growth.
Stem cells expressing the signaling deficient mutant SSTR2D314 incorporated into tumor and can be targeted with a therapeutic for inhibiting tumor growth (FIG. 8). […] Human ovarian cancer (Hey A8) cells were co-injected subcutaneously in nude mice with HS5 cells expressing or not expressing HA-SSTR2D314. […] Once tumors were established, 90Y-octreotate was delivered intravenously. Tumors were measured by calipers every two days. Tumors incorporating HS5 cells expressing the HA-SSTR2D314 mutant were growth inhibited compared to control (*p<0.05, HeyA8+HS5-SSTR2D314 vs HeyA8+HS5vector). The incorporated stem cells, but not the tumor cells, serve as a target for the therapeutic.

[8] = stably transfected HT1080 cells

HA-SSTR2D314: signaling deficient human SSTR2 truncated carboxy terminal to amino acid 314 (amino acids 1-314 of SEQ ID NO:6), HA-tagged
cell growth (cell number by MTT assay) [1, 8]: does not inhibit cellular growth upon ligand stimulation

HA-SSTR2D340: constitutively active human SSTR2 mutant, C-terminal amino acids after position 340 deleted (amino acids 1-340 of SEQ ID NO:6), HA-tagged
tumor growth (size by calipers) (HeyA8 tumors): inhibits the growth of tumor cells in vivo | cell growth (cell number by MTT assay) [1, 8]: inhibits growth even without ligand stimulation | cell growth (cell number by MTT assay) ([1]; transiently transfected HT1080 cells): inhibit growth even without ligand stimulation

[^90Y-DOTA]-octreotate [90Y-DOTATATE]
tumor growth (calipers) ([2]; HS5 expressing HA-SSTR2D314 injected intracardiac): inhibited growth of human tumors to which human mesenchymal stem cells expressing HA-SSTR2D314 homed and incorporated | tumor growth (calipers) ([2]; control HS5 injected intracardiac): not control HS5 cells | tumor growth (calipers) ([3]; tumors expressing signaling deficient receptor (HA-D314), once 1 mCi or twice 2 mCi and 1 mCi, listed as 90Y-octreotate): inhibited growth of tumors expressing wild-type or signaling deficient receptors; also recorded: decreased in size in a dose dependent manner | tumor growth (calipers) ([3]; tumors expressing wild-type receptor, once 1 mCi or twice 2 mCi and 1 mCi): inhibited growth of tumors expressing wild-type or signaling deficient receptors | tumor growth (calipers) ([3]; tumors from vector transfected cells, once 1 mCi or twice 2 mCi and 1 mCi): not tumors derived from vector transfected cells | teratoma growth (calipers) [4]: not tumors derived from wild type ES cells | bystander cell death (live/dead staining) [5]: Rosettes (clusters) of dead cells were seen | cell death (trypan blue uptake) ([6]; HT1080 cells expressing signaling deficient HA-SSTR2, exposure 1 hour and 72 hours): Dose dependent and time dependent killing was observed | cell death (trypan blue uptake) ([6]; HT1080 cells expressing wild-type HA-SSTR2, exposure 1 hour and 72 hours): Dose dependent and time dependent killing was observed | tumor growth (calipers) ([7]; HeyA8+HS5-SSTR2D314 co-injected subcutaneously): inhibited growth of human tumors incorporating HS5 human mesenchymal stem cells expressing SSTR2D314 | tumor growth (calipers) ([7]; HeyA8+control HS5 (vector) co-injected subcutaneously): not control HS5 cells

octreotide
tumor growth (calipers) ([3]; tumors expressing signaling deficient receptor (HA-D314), daily injections): no decrease in tumor size was seen | tumor growth (calipers) ([3]; tumors expressing wild-type receptor, daily injections): inhibited growth of tumors expressing wild-type receptor | tumor growth (calipers) ([3]; tumors from vector transfected cells, daily injections): not the signaling deficient receptor or tumors derived from vector transfected cells

wild-type SSTR2: HA-tagged wild-type (full length) human somatostatin receptor type 2
cell growth (cell number by MTT assay) [1, 8]: require ligand stimulation to inhibit growth

From patent publication US12691179B2, “Somatostatin receptor-based cancer therapy” (Vikas Kundra, priority 2010, dated 2026)
